Laboratory results reported in ChEMBL document CHEMBL5550131, “Medicinal chemistry strategies toward broad-spectrum antiviral agents to prevent next pandemics” (Eur J Med Chem, 2024).
pEC50, pIC50: −log10 of the molar value.

Assays:
Human alphaherpesvirus 1 = experiment: Antiviral activity against HSV 1 infected in African green monkey Vero cells assessed as reduction in plaque formation incubated for 36 hrs by crystal violet staining based assay; format: functional, organism-based; conditions: Human alphaherpesvirus 1, Vero
[1] = Inhibition of Influenza A virus RNA-dependent RNA polymerase
[2] = biological target: Dihydroorotate dehydrogenase (quinone), mitochondrial (Homo sapiens, UniProt Q02127); experiment: Inhibition of DHOH (unknown origin)
clinical = conditions: human, in vivo, iv, 5 mg/kg
Description: Elimination half life in human at 5 mg/kg, iv

Enterovirus = experiment: Antiviral activity against Enterovirus infected in human H1-HeLa cells incubated for 3 days by crystal violet staining based plaque counting analysis; format: functional, organism-based; conditions: 72 h
rhinovirus B14 = experiment: Antiviral activity against human Rhinovirus 14 infected in H1-HeLa cells incubated for 3 days by crystal-violet staining based analysis; format: functional, organism-based; conditions: Rhinovirus B, 72 h
Influenza A virus = experiment: Anti-influenza activity against Influenza A virus infected in MDCK cells assessed as reduction in virus-induced cytopathic effect incubated for 48 hrs by CCK-8 assay; format: functional, organism-based
[3] = Inhibition of Hepatitis C virus NS5B RNA dependent RNA polymerase; set-up: species or system Hepacivirus hominis
[4] = Elimination half life in human; format: ADME; conditions: read-out: beta t1/2 (converted)

Dihydroorotate dehydrogenase (quinone), mitochondrial, sequence (Q02127 whole entry): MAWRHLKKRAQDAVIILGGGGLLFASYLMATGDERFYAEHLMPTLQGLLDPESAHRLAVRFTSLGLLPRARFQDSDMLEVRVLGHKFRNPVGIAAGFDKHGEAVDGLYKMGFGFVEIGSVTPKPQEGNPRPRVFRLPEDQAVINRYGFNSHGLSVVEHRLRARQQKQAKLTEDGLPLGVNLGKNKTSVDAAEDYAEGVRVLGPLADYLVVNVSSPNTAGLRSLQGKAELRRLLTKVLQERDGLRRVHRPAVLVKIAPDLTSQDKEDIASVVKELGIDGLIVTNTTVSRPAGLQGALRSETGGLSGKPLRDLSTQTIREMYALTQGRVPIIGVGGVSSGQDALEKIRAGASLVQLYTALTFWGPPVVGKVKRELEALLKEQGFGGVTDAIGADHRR

C=CCNC1=C2C[C@@H](C)C[C@H](OC)[C@H](O)[C@@H](C)/C=C(\C)[C@H](OC(N)=O)[C@@H](OC)/C=C/C=C(\C)C(=O)NC(=CC1=O)C2=O
pIC50 (Human alphaherpesvirus 1): 8.11

NC(=O)c1nc(F)cn([C@@H]2O[C@H](COP(=O)(O)OP(=O)(O)OP(=O)(O)O)[C@@H](O)[C@H]2O)c1=O
pIC50 [1]: 6.47

CN(/N=C/c1ccccc1C(=O)O)c1nc(-c2ccccc2Cl)cs1
pIC50 [2]: 8.12

CCC(CC)COC(=O)[C@H](C)N[P@](=O)(OC[C@H]1O[C@@](C#N)(c2ccc3c(N)ncnn23)[C@H](O)[C@@H]1O)Oc1ccccc1
half-life (clinical): 0.48 h

COc1ccc(OCCCCCCn2ccnc2)c(Cl)c1
pEC50 (Enterovirus): 5.00
pEC50 (rhinovirus B14): 5.00

O=[N+]([O-])c1ccc(CNc2ccc3ncsc3c2)cc1
pIC50 (Influenza A virus): 5.47

C[C@@]1(O)[C@H](O)[C@@H](CO)O[C@H]1n1ccc2c(N)ncnc21 [BETA-2'-C-METHYL-7-DEAZA-ADENOSINE]
pIC50 [3]: 5.30

N#C[C@@]1(c2ccc3c(N)ncnn23)O[C@H](COP(=O)(O)OP(=O)(O)OP(=O)(O)O)[C@@H](O)[C@H]1O [RDV-TP]
half-life [4]: 26.6 h
